# Values of other authors as cited in US20040120995A1, “Transdermal delivery of pergolide” (priority 2003, published 2004).
# Counter-ions that a name gives are not always drawn. Like-named read-outs stand apart in the source and are kept apart here.
# Settings: for Pergolide Blood Serum Level: human subjects
structure (smiles),measurement,setting,value
CCCN1C[C@H](CSC)C[C@@H]2c3cccc4[nH]cc(c34)C[C@H]21 [pergolide mesylate],maximum blood serum level,2-3 hours following a 2.5 mg oral dose,about 500 picograms/ml
same,blood serum level,8 hours following a 0.5 mg oral dose,about 60 picograms/ml
same,Pergolide Blood Serum Level,oral dose 0.25 milligrams,47.75 picograms/ml
same,Pergolide Blood Serum Level,oral dose 0.50 milligrams,100.08 picograms/ml
same,Pergolide Blood Serum Level,oral dose 1.00 milligrams,199.33 picograms/ml
same,Pergolide Blood Serum Level,oral dose 2.00 milligrams,398.66 picograms/ml
same,Pergolide Blood Serum Level,oral dose 3.00 milligrams,597.99 picograms/ml
same,peak serum concentration,"oral dosing 3 mg/24 hours, divided into three doses",approximately 200 pg/ml
